Test results as given in ChEMBL document CHEMBL4411344, “Synthesis and biological evaluation of new long-chain squaramides as anti-chagasic agents in the BALB/c mouse model” (Bioorg Med Chem, 2019).

Assays:
Trypanosoma cruzi [1] = assay: Trypanocidal activity against Trypanosoma cruzi MHOM/Pe/2011/Arequipa DTU 5 epimastigotes after 72 hrs by resazurin dye based assay; format: functional, organism-based; conditions: MHOM/Pe/2011/Arequipa DTU 5, 72 h
Trypanosoma cruzi [2] = assay: Trypanocidal activity against Trypanosoma cruzi IRHOD/CO/2008/SN3 DTU 1 epimastigotes after 72 hrs by resazurin dye based assay; format: functional, organism-based; conditions: IRHOD/CO/2008/SN3 DTU 1, 72 h
Trypanosoma cruzi [3] = assay: Trypanocidal activity against Trypanosoma cruzi TINF/CH/1956/Tulahuen DTU 6 epimastigotes after 72 hrs by resazurin dye based assay; format: functional, organism-based; conditions: TINF/CH/1956/Tulahuen DTU 6, 72 h
Vero = assay: Cytotoxicity against African green monkey Vero cells assessed as reduction in cell viability after 72 hrs by resazurin dye based assay; conditions: Chlorocebus sabaeus
[4] = Selectivity index, ratio of IC50 for African green monkey Vero cells to IC50 for Trypanosoma cruzi MHOM/Pe/2011/Arequipa DTU 5 epimastigotes; format: toxicity; conditions: read-out: Ratio IC50
[5] = Selectivity index, ratio of IC50 for African green monkey Vero cells to IC50 for Trypanosoma cruzi IRHOD/CO/2008/SN3 DTU 1 epimastigotes; format: toxicity; conditions: read-out: Ratio IC50
[6] = Selectivity index, ratio of IC50 for African green monkey Vero cells to IC50 for Trypanosoma cruzi TINF/CH/1956/Tulahuen DTU 6 epimastigotes; format: toxicity; conditions: read-out: Ratio IC50
Trypanosoma cruzi [7] = assay: Trypanocidal activity against Trypanosoma cruzi MHOM/Pe/2011/Arequipa DTU 5 amastigotes infected in African green monkey Vero cells after 72 hrs by Giemsa-staining based microscopic assay; format: functional, organism-based; conditions: MHOM/Pe/2011/Arequipa DTU 5, Vero
Trypanosoma cruzi [8] = assay: Trypanocidal activity against Trypanosoma cruzi MHOM/Pe/2011/Arequipa DTU 5 trypomastigotes derived from infected Balb/c mouse after 72 hrs by resazurin dye based assay; format: functional, organism-based; conditions: MHOM/Pe/2011/Arequipa DTU 5, 72 h
Trypanosoma cruzi [9] = assay: Trypanocidal activity against Trypanosoma cruzi IRHOD/CO/2008/SN3 DTU 1 amastigotes infected in African green monkey Vero cells after 72 hrs by Giemsa-staining based microscopic assay; format: functional, organism-based; conditions: IRHOD/CO/2008/SN3 DTU 1, Vero
Trypanosoma cruzi [10] = assay: Trypanocidal activity against Trypanosoma cruzi IRHOD/CO/2008/SN3 DTU 1 trypomastigotes derived from infected Balb/c mouse after 72 hrs by resazurin dye based assay; format: functional, organism-based; conditions: IRHOD/CO/2008/SN3 DTU 1, 72 h
Trypanosoma cruzi [11] = assay: Trypanocidal activity against Trypanosoma cruzi TINF/CH/1956/Tulahuen DTU 6 amastigotes infected in African green monkey Vero cells after 72 hrs by Giemsa-staining based microscopic assay; format: functional, organism-based; conditions: TINF/CH/1956/Tulahuen DTU 6, Vero
Trypanosoma cruzi [12] = assay: Trypanocidal activity against Trypanosoma cruzi TINF/CH/1956/Tulahuen DTU 6 trypomastigotes derived from infected Balb/c mouse after 72 hrs by resazurin dye based assay; format: functional, organism-based; conditions: TINF/CH/1956/Tulahuen DTU 6, 72 h
[13] = Selectivity index, ratio of IC50 for African green monkey Vero cells to IC50 for Trypanosoma cruzi MHOM/Pe/2011/Arequipa DTU 5 amastigotes infected in African green monkey Vero cells; format: toxicity; conditions: read-out: Ratio IC50
[14] = Selectivity index, ratio of IC50 for African green monkey Vero cells to IC50 for Trypanosoma cruzi MHOM/Pe/2011/Arequipa DTU 5 trypomastigotes derived from infected Balb/c mouse; format: toxicity; conditions: read-out: Ratio IC50
[15] = Selectivity index, ratio of IC50 for African green monkey Vero cells to IC50 for Trypanosoma cruzi IRHOD/CO/2008/SN3 DTU 1 amastigotes infected in African green monkey Vero cells; format: toxicity; conditions: read-out: Ratio IC50
[16] = Selectivity index, ratio of IC50 for African green monkey Vero cells to IC50 for Trypanosoma cruzi IRHOD/CO/2008/SN3 DTU 1 trypomastigotes derived from infected Balb/c mouse; format: toxicity; conditions: read-out: Ratio IC50
[17] = Selectivity index, ratio of IC50 for African green monkey Vero cells to IC50 for Trypanosoma cruzi TINF/CH/1956/Tulahuen DTU 6 amastigotes infected in African green monkey Vero cells; format: toxicity; conditions: read-out: Ratio IC50
[18] = Selectivity index, ratio of IC50 for African green monkey Vero cells to IC50 for Trypanosoma cruzi TINF/CH/1956/Tulahuen DTU 6 trypomastigotes derived from infected Balb/c mouse; format: toxicity; conditions: read-out: Ratio IC50

SMILES | IC50 (Trypanosoma cruzi [1]) [µM] | IC50 (Trypanosoma cruzi [2]) [µM] | IC50 (Trypanosoma cruzi [3]) [µM] | IC50 (Vero) [µM] | selectivity ratio [4] | selectivity ratio [5] | selectivity ratio [6] | IC50 (Trypanosoma cruzi [7]) [µM] | IC50 (Trypanosoma cruzi [8]) [µM] | IC50 (Trypanosoma cruzi [9]) [µM] | IC50 (Trypanosoma cruzi [10]) [µM] | IC50 (Trypanosoma cruzi [11]) [µM] | IC50 (Trypanosoma cruzi [12]) [µM] | selectivity ratio [13] | selectivity ratio [14] | selectivity ratio [15] | selectivity ratio [16] | selectivity ratio [17] | selectivity ratio [18]
CCCCCCCCCCCCNc1c(N(C)CCCN(C)C)c(=O)c1=O | 64.6 | 37.5 | 49.5 | 128 | 2 | 3.4 | 2.6 |  |  |  |  |  |  |  |  |  |  |  | 
CN(C)CCCN(C)c1c(N(C)CCCN(C)C)c(=O)c1=O | 107 | 404 | 360 | 1140 | 10.6 | 2.8 | 3.2 |  |  |  |  |  |  |  |  |  |  |  | 
CCCCCCCCCCCC[N+](C)(C)CCCN(C)c1c(OCC)c(=O)c1=O | 63.3 | 74.5 | 89.1 | 353 | 5.6 | 4.7 | 4 |  |  |  |  |  |  |  |  |  |  |  | 
CN(C)CCCN(C)c1c(N)c(=O)c1=O | 42.3 | 33.7 | 42.6 | 1070 | 25.3 | 31.8 | 25.1 | 39.6 | 33.2 | 62.6 | 30.2 | 51.3 | 33.6 | 27 | 32.2 | 17.1 | 35.4 | 20.8 | 31.8
CCCCCCCCCCCC[N+](C)(C)CCCN(C)c1c(O)c(=O)c1=O | 22.1 | 33.1 | 66.1 | 160 | 7.2 | 4.8 | 2.4 |  |  |  |  |  |  |  |  |  |  |  | 
CCCCCCCCCCCCOc1c(N(C)CCCN(C)C)c(=O)c1=O | 36.2 | 19.4 | 14.6 | 291 | 8 | 15 | 19.9 |  |  | 28.4 | 24.1 | 25.5 | 19.1 |  |  | 10.3 | 12.1 | 11.4 | 15.3
CCCCCCCCNc1c(N(C)CCCN(C)C)c(=O)c1=O | 102 | 87.8 | 82 | 1150 | 11.4 | 13.2 | 14.2 |  |  |  |  |  |  |  |  |  |  |  | 
CCNc1c(N(C)CCCN(C)C)c(=O)c1=O | 41.3 | 41 | 27.8 | 900 | 21.8 | 22 | 32.4 | 27.8 | 29.1 | 54.5 | 28 | 31.6 | 26.6 | 32.3 | 30.9 | 16.5 | 32.1 | 28.5 | 33.8
CN(C)CCCN(C)c1c(NCCCN(C)CCCNc2c(N(C)CCCN(C)C)c(=O)c2=O)c(=O)c1=O | 177 | 311 | 241 | 2170 | 12.2 | 7 | 9 |  |  |  |  |  |  |  |  |  |  |  | 
CCCCNc1c(N(C)CCCN(C)C)c(=O)c1=O | 12.4 | 15.2 | 9.1 | 439 | 35.4 | 28.9 | 48.3 | 14.7 | 10.4 | 13.1 | 7.5 | 11.7 | 8.9 | 29.9 | 42.2 | 33.5 | 58.6 | 37.5 | 49.3
CCCCCCCCCCCCCCCCOP(=O)([O-])OCC[N+](C)(C)C [MILTEFOSINE] | 20.8 | 55.9 | 22.9 | 21.6 | 1 | 0.4 | 0.9 | 29.6 | 18.8 | 39.7 | 34.8 | 31.8 | 20.1 | 0.7 | 1.2 | 0.5 | 0.6 | 0.7 | 1.1
